Assay results as given in ChEMBL document CHEMBL3853300, “Synthesis of α-santonin derived acetyl santonous acid triazole derivatives and their bioevaluation for T and B-cell proliferation” (Eur J Med Chem, 2016).

Experiments:
Mus musculus [1] = species: Mus musculus; test: Cytotoxicity against Balb/c mouse T cells assessed as decrease in cell viability at 10 uM after 48 hrs by MTT assay; format: toxicity, cell-based
B = test: Immunosuppressive activity in Balb/c mouse B cells assessed as inhibition of LPS-induced cell proliferation after 48 hrs by MTT assay relative to control; format: functional, cell-based
Mus musculus [2] = species: Mus musculus; test: Cytotoxicity against Balb/c mouse T cells assessed as decrease in cell viability at 1 uM after 48 hrs by MTT assay; format: toxicity, cell-based
[3] = Immunosuppressive activity in Balb/c mouse B cells assessed as inhibition of LPS-induced cell proliferation at 100 uM after 48 hrs by MTT assay relative to control; format: functional
Mus musculus [4] = species: Mus musculus; test: Cytotoxicity against Balb/c mouse B cells assessed as decrease in cell viability at 100 uM after 48 hrs by MTT assay; format: toxicity, cell-based
Mus musculus [5] = species: Mus musculus; test: Cytotoxicity against Balb/c mouse T cells assessed as decrease in cell viability at 100 uM after 48 hrs by MTT assay; format: toxicity, cell-based
[6] = Immunosuppressive activity in Balb/c mouse T cells assessed as inhibition of ConA-induced cell proliferation at 100 uM after 48 hrs by MTT assay relative to control; format: functional
[7] = Immunosuppressive activity in Balb/c mouse T cells assessed as inhibition of ConA-induced cell proliferation at 1 uM after 48 hrs by MTT assay relative to control; format: functional
Mus musculus [8] = species: Mus musculus; test: Cytotoxicity against Balb/c mouse B cells assessed as decrease in cell viability at 10 uM after 48 hrs by MTT assay; format: toxicity, cell-based
[9] = Immunostimulatory activity in Balb/c mouse B cells assessed as induction of LPS-induced cell proliferation at 1 uM after 48 hrs by MTT assay relative to control; format: cell-based
Mus musculus [10] = species: Mus musculus; test: Cytotoxicity against Balb/c mouse B cells assessed as decrease in cell viability at 1 uM after 48 hrs by MTT assay; format: toxicity, cell-based
T-cell = test: Immunosuppressive activity in Balb/c mouse T cells assessed as inhibition of ConA-induced cell proliferation after 48 hrs by MTT assay relative to control; format: functional, cell-based
[11] = Immunosuppressive activity in Balb/c mouse B cells assessed as inhibition of LPS-induced cell proliferation at 10 uM after 48 hrs by MTT assay relative to control; format: functional
[12] = Immunosuppressive activity in Balb/c mouse T cells assessed as inhibition of ConA-induced cell proliferation at 10 uM after 48 hrs by MTT assay relative to control; format: functional
[13] = Immunostimulatory activity in Balb/c mouse T cells assessed as induction of ConA-induced cell proliferation at 1 uM after 48 hrs by MTT assay relative to control; format: cell-based
[14] = Immunosuppressive activity in Balb/c mouse B cells assessed as inhibition of LPS-induced cell proliferation at 1 uM after 48 hrs by MTT assay relative to control; format: functional
[15] = Immunostimulatory activity in Balb/c mouse T cells assessed as induction of ConA-induced cell proliferation at 10 uM after 48 hrs by MTT assay relative to control; format: cell-based

SMILES	Activity (Mus musculus [1])	inhibition (B)	Activity (Mus musculus [2])	inhibition at 100 µM [3]	Activity (Mus musculus [4])	Activity (Mus musculus [5])	inhibition at 100 µM [6]	inhibition at 1 µM [7]	Activity (Mus musculus [8])	Activity [9]	Activity (Mus musculus [10])	inhibition (T-cell)	inhibition at 10 µM [11]	inhibition at 10 µM [12]	Activity [13]	inhibition at 1 µM [14]	Activity [15]
CC(=O)Oc1cc(C)c2c(c1C)C[C@H]([C@@H](C)C(=O)OCc1cn(-c3ccc(Cl)nc3)nn1)CC2	Toxic	Dose-dependent effect	Non-Toxic	33.7%	Non-Toxic	Non-Toxic	1.85%	17.6%	Toxic	9.71%	Non-Toxic	Dose-dependent effect	24%	17.6%			
CC(=O)Oc1cc(C)c2c(c1C)C[C@H]([C@@H](C)C(=O)OCc1cn(-c3ccccc3C#N)nn1)CC2	Toxic	Dose-dependent effect	Toxic	25.1%	Toxic	Toxic	6.48%		Toxic		Toxic	Dose-dependent effect	26.3%	4.62%	12.96%	40%	
CC(=O)Oc1cc(C)c2c(c1C)C[C@H]([C@@H](C)C(=O)OCc1cn(-c3ccc4c(c3)OCO4)nn1)CC2	Toxic	Dose-dependent effect	Non-Toxic	22.3%	Non-Toxic	Non-Toxic	32.4%	27.8%	Toxic		Non-Toxic	Dose-dependent effect	33.9%			40.6%	16.66%
CC(=O)Oc1cc(C)c2c(c1C)C[C@H]([C@@H](C)C(=O)OCc1cn(-c3ccc(O)cc3C)nn1)CC2	Non-Toxic	Dose-dependent effect	Non-Toxic	79.7%	Toxic	Toxic	54.7%	22.7%	Non-Toxic		Non-Toxic	Dose-dependent effect	77.1%			68.8%	1.33%
CC(=O)Oc1cc(C)c2c(c1C)C[C@H]([C@@H](C)C(=O)OCc1cn(Cc3ccc(Br)cc3)nn1)CC2	Toxic	Dose-dependent effect	Non-Toxic	38.7%	Toxic	Toxic	37.4%		Toxic	19.71%	Non-Toxic	Dose-dependent effect	34.1%	33.9%	14.15%		
CC1=C2[C@H]3OC(=O)[C@@H](C)[C@@H]3CC[C@@]2(C)C=CC1=O [SANTONIN]	Non-Toxic	Dose-dependent effect	Non-Toxic	37.6%	Non-Toxic	Non-Toxic	6.09%	39.4%	Non-Toxic		Non-Toxic	Dose-dependent effect	26.8%			21.1%	3.66%
CC(=O)Oc1cc(C)c2c(c1C)C[C@H]([C@@H](C)C(=O)OCc1cn(-c3ccc(CO)cc3)nn1)CC2	Toxic	Dose-dependent effect	Toxic	11.5%	Toxic	Toxic	5.88%	40%	Toxic		Toxic	Dose-dependent effect	35.7%	37.5%		40%	
C#CCOC(=O)[C@H](C)[C@@H]1CCc2c(C)cc(OC(C)=O)c(C)c2C1	Toxic	Dose-dependent effect	Non-Toxic	69.7%	Non-Toxic	Non-Toxic	71.5%	41.7%	Toxic		Non-Toxic	Dose-dependent effect	59.3%	51.2%		57.8%	
CC(=O)Oc1cc(C)c2c(c1C)C[C@H]([C@@H](C)C(=O)OCc1cn(Cc3ccccc3)nn1)CC2	Non-Toxic	Dose-dependent effect	Non-Toxic	32.3%	Toxic	Toxic	44%	33%	Non-Toxic		Non-Toxic	Dose-dependent effect	33.5%	39.2%		48.6%	
CC(=O)Oc1cc(C)c2c(c1C)C[C@H]([C@@H](C)C(=O)OCc1cn(-c3ccc(C(=O)c4ccccc4)cc3)nn1)CC2	Toxic	Dose-dependent effect	Non-Toxic	81.2%	Toxic	Toxic	20%	5.33%	Toxic		Non-Toxic	Dose-dependent effect	75%	28%		69.3%	
CC(=O)Oc1cc(C)c2c(c1C)C[C@H]([C@@H](C)C(=O)OCc1cn(-c3ccc(NC(=O)c4ccccc4)cc3)nn1)CC2	Toxic	Dose-dependent effect	Non-Toxic	19.2%	Non-Toxic	Non-Toxic	38.2%	7.35%	Toxic		Non-Toxic	Dose-dependent effect	35.2%	30.9%		36.8%	
CC(=O)Oc1cc(C)c2c(c1C)[C@@H]1OC(=O)[C@@H](C)[C@@H]1CC2	Toxic	Dose-dependent effect	Toxic	70%	Non-Toxic	Non-Toxic	75%	47.7%	Toxic		Toxic	Dose-dependent effect	44.3%	49.2%		61.8%	
CC(=O)Oc1cc(C)c2c(c1C)C[C@H]([C@@H](C)C(=O)OCc1cn(-c3ccc(CC#N)cc3)nn1)CC2	Toxic	Dose-dependent effect	Toxic	65.6%	Toxic	Toxic	68.9%	21.2%	Toxic		Toxic	Dose-dependent effect	58.8%	47%		59.5%	
CC(=O)Oc1cc(C)c2c(c1C)C[C@H]([C@@H](C)C(=O)OCc1cn(-c3ccc(C#N)cc3)nn1)CC2	Toxic	Dose-dependent effect	Toxic	67.9%	Toxic	Toxic	59.8%	35.6%	Toxic		Toxic	Dose-dependent effect	80.9%	52.3%		76.3%	
CC(=O)Oc1cc(C)c2c(c1C)C[C@H]([C@@H](C)C(=O)OCc1cn(-c3ccccc3Cl)nn1)CC2	Toxic	Dose-dependent effect	Toxic	37.7%	Toxic	Toxic	30.6%	5.55%	Toxic		Toxic	Dose-dependent effect	30.3%	17.6%		33.7%	
